Experimental data taken from publication PMC4977651, “Molecular features of biguanides required for targeting of mitochondrial respiratory complex I and activation of AMP-kinase” (BMC Biology, 2016).
Where “and” joins values, the source holds several entries; their conditions need not be identical. Equal entries are not always repeated. Where two headings read alike, the source gives them in different places.

Experiments:
HepG2 cells = experiment: Rotenone-sensitive oxygen consumption rate in intact HepG2 cells; type: cell-based, human; conditions: for rotenone sensitive OCR after 6 hours of biguanide exposure, % control, average / rotenone sensitive OCR after 6 hours of biguanide exposure, average: HEPG2 cells, biguanide at IC50/10; for rotenone sensitive OCR after 6 hours of biguanide exposure, average: OCR normalized to OCR immediately prior to biguanide addition; for inhibition of rotenone-sensitive respiration (in words): intact HepG2 cells, biguanide at IC50/10, monitored for 6 h
Protocol: (§1) 143B (CRL-8303 from ATCC), HepG2 (85011430 from The Health Protection Agency), and MDBK (CCL-22 from ATCC) cells were grown on Dulbecco’s modified Eagle’s medium (DMEM) supplemented with 10 % fetal bovine serum (FBS, Thermo Fisher Scientific) at 37 °C in 5 % CO2. All cells were confirmed as negative for mycoplasma.
(§2) Oxygen consumption rates (OCRs) were measured using a Seahorse XF96 extracellular flux analyzer at 37 °C. For intact cell measurements, 1.4 × 10^4 143B, HepG2, or MDBK cells were plated (per well) in DMEM containing 10 % FBS into Seahorse Bioscience Inc. XF96 plates and incubated for ~12 h at 37 °C in 5 % CO2. Then, the medium was exchanged for assay buffer containing DMEM, 4.5 g L^−1 glucose, 1 mM pyruvate, 32 mM NaCl, 2 mM GlutaMAX, 15 mg L^−1 phenol red, and 20 mM HEPES (pH 7.4 at 37 °C) and the cells placed in a CO2-free incubator at 37 °C for 30 min. Basal oxygen consumption rates were established before the addition of biguanides at one-tenth of their IC50 (IC50/10), and followed for ~ 6 h before the addition of rotenone (2 μM).
(§3) Rotenone-sensitive OCRs were calculated by subtracting the rotenone-insensitive rates (determined at the end of the experiment). OCRs were normalized by dividing by the OCR recorded immediately prior to the addition of biguanide. For rate of uptake calculations, the OCRs at time points after biguanide addition were divided by the OCRs at the same time points in control experiments. Data from wells with failed port injections were excluded from the analyses. The respiratory control ratio (RCR) values (state III versus state IV respiration) were ~11 and ~6 for permeabilized MDBK and 143B cells, respectively.

143B cells = experiment: Rotenone-sensitive oxygen consumption rate in intact 143B cells; type: cell-based, human; conditions: for rotenone sensitive OCR after 6 hours of biguanide exposure, % control, average / rotenone sensitive OCR after 6 hours of biguanide exposure, average: 143B cells, biguanide at IC50/10; for rotenone sensitive OCR after 6 hours of biguanide exposure, average: OCR normalized to OCR immediately prior to biguanide addition; for inhibition of rotenone-sensitive respiration (in words): intact 143B cells, biguanide at IC50/10, monitored for 6 h
Protocol: as §1, §2, §3

[1] = molecular target: mouse heart mitochondrial membranes (complex I) (Mus musculus, UniProt P03888+P03899+Q91WD5+Q9DC70); experiment: NADH:O2 oxidoreduction by mouse heart mitochondrial membranes; type: biochemical; conditions: for LogIC50 (best fit value): log of IC50 in mM
Protocol: Complex I and mitochondrial membranes were prepared from Bos taurus (bovine) heart. Intact mitochondria were isolated from rat liver and mouse heart and liver. Membranes were prepared from mouse heart mitochondria by 5 s bursts of sonication at 4 °C and collected by centrifugation (75,000 × g, 1 h).
Assays were performed at 32 °C in a SpectraMax 96-well plate reader. NADH:decylubiquinone oxidoreduction by complex I at 0.5 μg mL^−1 was measured in 20 mM Tris-HCl (pH 7.2), 0.15 % soy bean asolectin (Avanti Polar Lipids), and 0.15 % 3-((3-cholamidopropyl)dimethylammonium)-1-propanesulfonate (CHAPS, Merck Chemicals Ltd), with 200 μM decylubiquinone and 200 μM NADH, and monitored using ε340–380(NADH) = 4.81 mM^−1 cm^−1 [23]. Catalysis was initiated by addition of NADH and maximal rates determined by linear regression. NADH:O2 oxidoreduction by membranes was measured similarly but using 5 μg mL^−1 membranes in 10 mM Tris-HCl (pH 7.4) and 250 mM sucrose using 200 μM NADH and supplemented with 0.15 mM horse heart cytochrome c (Sigma-Aldrich Ltd.). Succinate:O2 oxidoreduction was measured using 40 μg mL^−1 membranes in 5 mM succinate in 10 mM Tris-HCl (pH 7.4) as described previously. Control experiments included NaCl (to match the ionic strength) or DMSO, as appropriate.
Experimental values are reported as mean averages ± standard deviation (SD) of technical replicates for large sample sizes and mean averages ± standard error of the mean (SEM) of technical replicates for small sample sizes. Data were analyzed by the unpaired two-tailed Student’s t test. IC50 values were determined using the standard dose-effect relationship (activity (%) = 100 × IC50 / (IC50 + [inhibitor]^m) with the Hill Slope (m) set to unity for purified complex I) and are reported with 95 % confidence intervals.

MDBK cells = experiment: Rotenone-sensitive oxygen consumption rate in intact MDBK cells; type: cell-based, Bos taurus; parameters: key to rotenone sensitive OCR after 40 mins of biguanide exposure / rotenone sensitive OCR after 40 mins of biguanide exposure, average: % of OCR recorded immediately before biguanide addition; conditions: for rotenone sensitive OCR after 6 hours of biguanide exposure, % control, average / rotenone sensitive OCR after 6 hours of biguanide exposure, average / rotenone sensitive OCR after 40 mins of biguanide exposure, % control, average / rotenone sensitive OCR after 40 mins of biguanide exposure, average / rotenone sensitive OCR after 40 mins of biguanide exposure / rotenone sensitive OCR after 40 mins of biguanide exposure, % control: biguanide at IC50/10; for rotenone sensitive OCR after 6 hours of biguanide exposure, average: OCR normalized to OCR immediately prior to biguanide addition; for rotenone sensitive OCR after 40 mins of biguanide exposure, % control, average / rotenone sensitive OCR after 40 mins of biguanide exposure, average / rotenone sensitive OCR after 40 mins of biguanide exposure / rotenone sensitive OCR after 40 mins of biguanide exposure, % control: MDBK intact cells; for rotenone sensitive OCR after 40 mins of biguanide exposure, % control, average / rotenone sensitive OCR after 40 mins of biguanide exposure, average: average of replicates; for rotenone sensitive OCR after 40 mins of biguanide exposure / rotenone sensitive OCR after 40 mins of biguanide exposure, % control: individual replicates
Protocol: as §1, §2, §3

[2] = test system: acetyl-coA carboxylase (phospho-Ser79); experiment: AMPK activation, western blot of phospho-acetyl-coA carboxylase in MDBK cells; type: cell-based, Bos taurus; conditions: for ACC, average normalised to control: Averages of experiments 1-3, 18 hours; for p-ACC: band intensity
Protocol: MDBK cells were seeded at 1 × 10^6 cells per 6 cm dish in DMEM containing 10 % FBS. […] After 18 h cells were harvested by a rapid lysis procedure: cells were rinsed with PBS, then lysed using ice-cold buffer containing 50 mM HEPES, 1 mM EDTA, 10 % glycerol, 50 mM NaF, 5 mM sodium pyrophosphate, 1 % Triton-X100, 1 mM dithiothreitol (DTT), and a protease inhibitor cocktail (Roche). The cell lysate was centrifuged at 14,000 × g for 20 min at 4 °C and the protein concentration of the supernatant determined by bicinchoninic acid assay. The lysate was analyzed using Novex 3–12 % bis-Tris gels run in 3-(N-morpholino)propanesulfonic acid (MOPS) buffer (20 μg of protein per lane) followed by transfer to low fluorescence polyvinylidene fluoride membranes by wet transfer. Primary rabbit antibodies for AMPK-β (57C12), AMPK-α (phospho-Thr172) (40H9), and acetyl-coA carboxylase (phospho-Ser79) (Cell Signaling Technology) were incubated overnight with the membrane (1:1000 dilution) in Odyssey blocking buffer at 4 °C. A fluorescent secondary antibody was used (IRDYE800CW from LI-COR Biosciences, 1:20,000 dilution) with a LI-COR Odyssey imaging system.

Sequence of mouse heart mitochondrial membranes (complex I) (P03899 whole entry): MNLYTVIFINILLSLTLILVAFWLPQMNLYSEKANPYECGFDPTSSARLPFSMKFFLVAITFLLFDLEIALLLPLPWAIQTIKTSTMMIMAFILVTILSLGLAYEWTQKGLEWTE
Sequence of mouse heart mitochondrial membranes (complex I) (P03888 whole entry): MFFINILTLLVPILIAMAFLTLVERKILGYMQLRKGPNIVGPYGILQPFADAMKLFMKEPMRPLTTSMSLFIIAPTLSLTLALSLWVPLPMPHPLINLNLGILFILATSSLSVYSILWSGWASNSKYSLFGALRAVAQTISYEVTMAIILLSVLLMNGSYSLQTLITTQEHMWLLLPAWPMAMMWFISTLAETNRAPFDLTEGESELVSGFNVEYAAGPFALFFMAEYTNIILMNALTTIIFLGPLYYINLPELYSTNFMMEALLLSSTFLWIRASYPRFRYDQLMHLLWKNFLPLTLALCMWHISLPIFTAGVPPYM
Sequence of mouse heart mitochondrial membranes (complex I) (Q9DC70 36-224): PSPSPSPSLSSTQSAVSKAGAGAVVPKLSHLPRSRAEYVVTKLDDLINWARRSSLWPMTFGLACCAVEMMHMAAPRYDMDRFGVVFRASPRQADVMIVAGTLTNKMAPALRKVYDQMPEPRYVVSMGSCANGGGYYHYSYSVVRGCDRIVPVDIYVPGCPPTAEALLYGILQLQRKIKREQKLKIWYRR
Sequence of mouse heart mitochondrial membranes (complex I) (Q91WD5 34-463): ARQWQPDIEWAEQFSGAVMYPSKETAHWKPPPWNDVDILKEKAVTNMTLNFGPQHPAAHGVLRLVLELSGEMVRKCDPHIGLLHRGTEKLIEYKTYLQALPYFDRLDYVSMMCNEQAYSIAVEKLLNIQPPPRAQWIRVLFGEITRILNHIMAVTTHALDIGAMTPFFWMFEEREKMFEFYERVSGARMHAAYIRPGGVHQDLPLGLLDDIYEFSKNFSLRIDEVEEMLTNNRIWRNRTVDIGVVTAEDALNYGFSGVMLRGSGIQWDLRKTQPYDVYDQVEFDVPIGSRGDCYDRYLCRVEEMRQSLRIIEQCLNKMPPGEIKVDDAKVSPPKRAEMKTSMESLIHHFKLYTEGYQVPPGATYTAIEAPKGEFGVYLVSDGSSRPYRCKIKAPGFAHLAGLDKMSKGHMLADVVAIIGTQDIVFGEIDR

| Compound | rotenone sensitive OCR after 6 hours of biguanide exposure, % control, average (HepG2 cells) | rotenone sensitive OCR after 6 hours of biguanide exposure, average (HepG2 cells) | inhibition of rotenone-sensitive respiration (in words) (HepG2 cells) | rotenone sensitive OCR after 6 hours of biguanide exposure, % control, average (143B cells) | rotenone sensitive OCR after 6 hours of biguanide exposure, average (143B cells) | inhibition of rotenone-sensitive respiration (in words) (143B cells) | HillSlope (best fit value) ([1]; Prism variable slope fit) | LogIC50 (best fit value) ([1]; Prism variable slope fit) | rotenone sensitive OCR after 6 hours of biguanide exposure, % control, average (MDBK cells; MDBK cells) | rotenone sensitive OCR after 6 hours of biguanide exposure, average (MDBK cells; MDBK cells) | rotenone sensitive OCR after 40 mins of biguanide exposure, % control, average (MDBK cells) | rotenone sensitive OCR after 40 mins of biguanide exposure, average (MDBK cells) | rotenone sensitive OCR after 40 mins of biguanide exposure (MDBK cells) | rotenone sensitive OCR after 40 mins of biguanide exposure, % control (MDBK cells) | ACC, average normalised to control [2] | p-ACC / AMPK beta ([2]; Experiment 1, 18 hours) | p-ACC / AMPK beta normalised to control ([2]; Experiment 1, 18 hours) | p-ACC ([2]; Experiment 1, 18 hours) | p-ACC / AMPK beta ([2]; Experiment 2, 18 hours) | p-ACC / AMPK beta normalised to control ([2]; Experiment 2, 18 hours) | also measured |
| --- | --- | --- | --- | --- | --- | --- | --- | --- | --- | --- | --- | --- | --- | --- | --- | --- | --- | --- | --- | --- | --- |
| NC(N)=NC(N)=NCCc1ccc(Cl)cc1 [compound 1, 2-[2-(4-chlorophenyl)ethyl]-1-(diaminomethylidene)guanidine] | 4.45 % control | 4.59 | inhibit respiration | 3.06 % control | 3.59 | inhibit respiration | -0.8311 | -0.3323 | 64.04 % control | 64.24 | 96.88 % control | 98.58 | 98.09 and 97.70 and 99.35 (3×) and 96.88 and 99.34 | 96.40 % control and 96.02 % control and 97.64 % control (3×) and 95.21 % control and 97.63 % control | 9.49 | 1.85 | 9.53 | 848 | 2.03 | 12.57 | IC50 ([1]; Prism variable slope fit, Bottom 0, Top 100, read-out: IC50 (best fit value)): 465 µM; remaining activity at 130 µM ([1]; inhibitor 0.13 mM, read-out: average % (rate, % of no-inhibitor control)): 75.2%; remaining activity at 250 µM ([1]; inhibitor 0.25 mM, read-out: average % (rate, % of no-inhibitor control)): 62.1%; remaining activity at 500 µM ([1]; inhibitor 0.50 mM, read-out: average % (rate, % of no-inhibitor control)): 47.6%; remaining activity at 1000 µM ([1]; inhibitor 1.00 mM, read-out: average % (rate, % of no-inhibitor control)): 36.7%; remaining activity at 2500 µM ([1]; inhibitor 2.50 mM, read-out: average % (rate, % of no-inhibitor control)): 19.7%; remaining activity at 5000 µM ([1]; inhibitor 5.00 mM, read-out: average % (rate, % of no-inhibitor control)): 9.86%; remaining activity at 10000 µM ([1]; inhibitor 10.00 mM, read-out: average % (rate, % of no-inhibitor control)): 8.63%; maximal rate of accumulation (estimated matrix concentration) (MDBK cells; MDBK cells, biguanide at IC50/10 in the extracellular medium (phenformin 34 μM; compound 1 37 μM), estimated from OCR inhibition): 1 µM/min; p-ACC ([2]; Experiment 2, 18 hours): 727; p-ACC / AMPK beta ([2]; Experiment 3, 18 hours): 1.89; p-ACC / AMPK beta normalised to control ([2]; Experiment 3, 18 hours): 6.35; p-ACC ([2]; Experiment 3, 18 hours): 483 |
| N=C(N)NC(N)=Nc1ccccc1 [compound 2, phenyl biguanide] | 91.28 % control | 94.14 | do not | 98.12 % control | 115.02 | do not | -1.093 | -0.05416 | 99.86 % control | 100.16 | 98.99 % control | 100.73 | 97.96 and 102.05 and 98.68 and 102.17 and 103.50 and 100.00 | 96.27 % control and 100.30 % control and 96.98 % control and 100.41 % control and 101.71 % control and 98.28 % control | 1.20 | 0.25 | 1.30 | 118 | 0.22 | 1.36 | IC50 ([1]; read-out: IC50 (best fit value), Prism variable slope fit, Bottom 0, Top 100): 883 µM; p-ACC ([2]; Experiment 2, 18 hours): 75.8; p-ACC / AMPK beta ([2]; Experiment 3, 18 hours): 0.28; p-ACC / AMPK beta normalised to control ([2]; Experiment 3, 18 hours): 0.93; p-ACC ([2]; Experiment 3, 18 hours): 59.9 |
